The source made the active and inactive calls. No cut-off for these calls is given here.
How the values were obtained:
[1] = Modulation of gamma-secretase expressed in CHO cells co-expressing human APP and wild type human presenilin-1 assessed as inhibition of amyloid beta42 production by ELISA; type: cell-based
[2] = tested on: CHO; assay: Cytotoxicity against CHO cells expressing human APP and wild type human presenilin-1 assessed as reduction of cell viability up to 40 uM after 24 hrs by Alamar blue assay; type: cell-based, Cricetulus griseus; details: chinese hamster
[3] = molecular target: T1, Peroxisome proliferator-activated receptor alpha (Homo sapiens) (UniProt Q07869); assay: Modulation of human PPARalpha-LBD expressed in african green monkey COS7 cells co-transfected with Gal4 assessed as activation of transactivation activity at 10 uM by luciferase assay; type: cell-based; details: COS-7
T1 sequence (whole entry): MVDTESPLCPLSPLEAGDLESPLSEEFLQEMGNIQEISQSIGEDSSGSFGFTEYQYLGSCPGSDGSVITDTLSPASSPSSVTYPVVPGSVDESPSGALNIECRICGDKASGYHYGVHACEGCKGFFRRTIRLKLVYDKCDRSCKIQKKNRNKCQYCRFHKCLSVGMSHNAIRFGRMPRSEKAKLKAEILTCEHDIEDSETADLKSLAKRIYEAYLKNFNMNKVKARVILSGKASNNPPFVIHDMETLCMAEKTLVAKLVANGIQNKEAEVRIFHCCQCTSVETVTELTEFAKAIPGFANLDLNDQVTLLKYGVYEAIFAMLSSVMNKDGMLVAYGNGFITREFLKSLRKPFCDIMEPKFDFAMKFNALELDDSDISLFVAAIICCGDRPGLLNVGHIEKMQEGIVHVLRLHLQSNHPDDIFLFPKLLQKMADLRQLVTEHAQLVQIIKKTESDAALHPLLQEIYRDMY

[4] = molecular target: T2, Peroxisome proliferator-activated receptor delta (Homo sapiens) (UniProt Q03181); assay: Modulation of human PPARdelta-LBD expressed in african green monkey COS7 cells co-transfected with Gal4 assessed as activation of transactivation activity at 10 uM by luciferase assay; type: cell-based; details: COS-7
T2 sequence (whole entry): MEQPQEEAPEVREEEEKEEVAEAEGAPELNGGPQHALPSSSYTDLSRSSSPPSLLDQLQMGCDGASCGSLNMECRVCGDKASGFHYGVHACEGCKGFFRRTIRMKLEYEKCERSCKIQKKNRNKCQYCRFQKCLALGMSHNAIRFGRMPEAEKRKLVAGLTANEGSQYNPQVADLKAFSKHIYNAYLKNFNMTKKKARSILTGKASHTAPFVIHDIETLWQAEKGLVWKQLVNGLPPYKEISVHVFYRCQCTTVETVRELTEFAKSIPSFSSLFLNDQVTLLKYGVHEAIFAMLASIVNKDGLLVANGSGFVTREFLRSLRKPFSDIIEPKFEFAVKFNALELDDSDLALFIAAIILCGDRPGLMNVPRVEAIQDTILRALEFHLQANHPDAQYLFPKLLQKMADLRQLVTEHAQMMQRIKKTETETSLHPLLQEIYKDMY

[5] = molecular target: T3, Peroxisome proliferator-activated receptor gamma (Homo sapiens, UniProt P37231); assay: Modulation of human PPARgamma-LBD expressed in african green monkey COS7 cells co-transfected with Gal4 assessed as activation of transactivation activity by luciferase assay; type: cell-based, COS-7
T3 sequence (P37231 whole entry): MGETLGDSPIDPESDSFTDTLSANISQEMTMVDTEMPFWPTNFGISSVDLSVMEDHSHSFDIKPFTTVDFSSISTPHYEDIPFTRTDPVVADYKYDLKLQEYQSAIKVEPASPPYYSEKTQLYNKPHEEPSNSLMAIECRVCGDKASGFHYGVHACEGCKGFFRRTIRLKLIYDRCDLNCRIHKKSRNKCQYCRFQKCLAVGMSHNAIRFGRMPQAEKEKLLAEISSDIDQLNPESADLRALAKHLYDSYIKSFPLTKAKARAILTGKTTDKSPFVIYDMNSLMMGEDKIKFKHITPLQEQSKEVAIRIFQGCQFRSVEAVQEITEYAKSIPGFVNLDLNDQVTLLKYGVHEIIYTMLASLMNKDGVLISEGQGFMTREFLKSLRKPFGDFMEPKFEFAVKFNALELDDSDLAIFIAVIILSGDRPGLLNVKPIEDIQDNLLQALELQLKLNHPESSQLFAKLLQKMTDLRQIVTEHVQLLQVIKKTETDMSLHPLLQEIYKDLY

[6] = molecular target: T4, Peroxisome proliferator-activated receptor gamma (Homo sapiens) (UniProt P37231); assay: Modulation of human PPARgamma-LBD expressed in african green monkey COS7 cells co-transfected with Gal4 assessed as activation of transactivation activity by luciferase assay relative to pioglitazone; type: cell-based; details: COS-7
T4 sequence (whole entry): T3 sequence (P37231 whole entry)

[7] = Modulation of gamma-secretase expressed in CHO cells co-expressing human APP and wild type human presenilin-1 assessed as increase of amyloid beta38 production by ELISA; type: cell-based
[8] = molecular target: T5, Prostaglandin G/H synthase 1 (Ovis aries) (UniProt P05979); assay: Inhibition of ovine COX-1 assessed as residual activity by measuring formation of 12-HHT from arachidonic acid at 10 uM by HPLC analysis
T5 sequence (whole entry): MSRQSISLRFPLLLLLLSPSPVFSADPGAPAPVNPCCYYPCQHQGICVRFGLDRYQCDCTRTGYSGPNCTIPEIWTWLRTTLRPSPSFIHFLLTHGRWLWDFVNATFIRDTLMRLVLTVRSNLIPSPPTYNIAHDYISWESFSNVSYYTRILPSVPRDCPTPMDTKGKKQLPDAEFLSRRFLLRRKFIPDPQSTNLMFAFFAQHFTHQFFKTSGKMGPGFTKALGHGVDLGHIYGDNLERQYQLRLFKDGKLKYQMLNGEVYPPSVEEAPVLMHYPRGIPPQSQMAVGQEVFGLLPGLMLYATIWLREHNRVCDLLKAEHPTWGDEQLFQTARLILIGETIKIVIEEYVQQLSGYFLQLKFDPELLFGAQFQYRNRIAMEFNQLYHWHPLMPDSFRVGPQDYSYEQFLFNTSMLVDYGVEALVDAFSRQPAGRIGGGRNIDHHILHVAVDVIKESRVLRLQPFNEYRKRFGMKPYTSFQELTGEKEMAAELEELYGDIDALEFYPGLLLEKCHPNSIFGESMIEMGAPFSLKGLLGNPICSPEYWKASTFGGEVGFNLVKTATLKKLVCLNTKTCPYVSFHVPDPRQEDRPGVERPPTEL

[9] = molecular target: T6, Prostaglandin G/H synthase 2 (Homo sapiens) (UniProt P35354); assay: Inhibition of human recombinant COX-2 assessed as residual activity by measuring formation of 12-HHT from arachidonic acid at 10 uM by HPLC analysis
T6 sequence (whole entry): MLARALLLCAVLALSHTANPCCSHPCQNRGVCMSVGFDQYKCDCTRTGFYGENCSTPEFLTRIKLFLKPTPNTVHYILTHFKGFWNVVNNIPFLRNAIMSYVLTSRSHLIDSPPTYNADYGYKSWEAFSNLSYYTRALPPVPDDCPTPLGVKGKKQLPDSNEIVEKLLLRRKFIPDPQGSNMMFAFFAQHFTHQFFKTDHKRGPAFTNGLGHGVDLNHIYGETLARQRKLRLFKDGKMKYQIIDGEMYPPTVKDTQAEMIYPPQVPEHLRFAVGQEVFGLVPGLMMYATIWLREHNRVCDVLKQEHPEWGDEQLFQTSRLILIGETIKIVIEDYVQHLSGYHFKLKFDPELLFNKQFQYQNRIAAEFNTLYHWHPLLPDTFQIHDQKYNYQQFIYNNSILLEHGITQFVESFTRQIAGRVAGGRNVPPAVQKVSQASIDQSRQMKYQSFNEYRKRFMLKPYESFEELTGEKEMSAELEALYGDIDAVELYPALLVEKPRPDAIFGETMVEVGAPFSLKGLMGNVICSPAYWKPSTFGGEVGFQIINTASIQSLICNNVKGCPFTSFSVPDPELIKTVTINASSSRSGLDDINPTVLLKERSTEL

[10] = tested on: CHO; assay: Inhibition of gamma-secretase-mediated notch signaling expressed in CHO cells transfected with Gal4-DNA-binding/VP16 transactivation domain assessed as reduction of reporter activity up to 30 uM by luciferase assay; type: cell-based
[11] = Selectivity ratio of inhibition of gamma-secretase-mediated notch signaling to modulation of gamma-secretase
[12] = molecular target: T4, Peroxisome proliferator-activated receptor gamma (Homo sapiens); assay: Modulation of human PPARgamma-LBD expressed in african green monkey COS7 cells co-transfected with Gal4 assessed as activation of transactivation activity at 10 uM by luciferase assay; type: cell-based; details: COS-7

| SMILES | IC50 [1] [µM] | Activity [2] | Activity [3] | Activity [4] | EC50 [5] [µM] | Emax [6] [%] | EC50 [7] [µM] | Activity [8] [%] | Activity [9] [%] | inhibition [10] | Ratio [11] | Activity [12] [%] |
| --- | --- | --- | --- | --- | --- | --- | --- | --- | --- | --- | --- | --- |
| CCCCC(Sc1nc(OCCC2CCCCC2)cc(OCCC2CCCCC2)n1)C(=O)O (stereo not drawn) | 6 | Non-toxic | – | – | – | – | – | – | – | – | – | – |
| CCCC/C(=C\c1cc(OCCc2ccc(C(F)(F)F)cc2)ccc1OCCc1ccc(C(F)(F)F)cc1)C(=O)O | 2.4 | Non-toxic | inactive | inactive | 7.2 | 86 | 1.6 | 81 | 102 | inactive | 8 | – |
| CCCCC(Cc1cc(OCCc2ccccc2)cc(OCCc2ccccc2)c1)C(=O)O (stereo not drawn) | 38.4 | Non-toxic | inactive | inactive | 4.7 | 71 | 28.1 | 78.7 | 78.4 | – | – | – |
| CCCCC(Cc1ccc(OCCC2CCCCC2)c(OCCc2ccccc2)c1)C(=O)O (stereo not drawn) | > 40 | Non-toxic | inactive | inactive | 2.5 | 61 | > 40 | 69.1 | 91.5 | – | – | – |
| CCCCC(Sc1cc(OCCc2ccccc2)cc(OCCc2ccccc2)c1)C(=O)O (stereo not drawn) | 32.7 | Non-toxic | inactive | inactive | 3.4 | 73 | 22.2 | 71.3 | 110 | – | – | – |
| CCCC/C(=C\c1cc(OCCC2CCCCC2)ccc1OCc1ccc(C(F)(F)F)cc1)C(=O)O | 2.7 | Non-toxic | inactive | inactive | – | – | 2.5 | 92.3 | 106 | – | – | 27 |
| CCCC/C(=C\c1cc(OCc2ccc(C(F)(F)F)cc2)ccc1OCc1ccc(C(F)(F)F)cc1)C(=O)O | 1.2 | Non-toxic | inactive | inactive | – | – | 1.1 | 82.6 | 102 | – | – | 28 |
| CCCCC(Cc1cc(OCCc2ccccc2)ccc1OCCc1ccccc1)C(=O)O (stereo not drawn) | 19.1 | Non-toxic | inactive | inactive | 10.8 | 97 | 14.5 | 63.8 | 66.5 | – | – | – |
| CCCCC(Oc1cc(OCCc2ccccc2)cc(OCCc2ccccc2)c1)C(=O)O (stereo not drawn) | 33.7 | Non-toxic | inactive | inactive | 4.8 | 46 | 26.4 | 71.6 | 92.5 | – | – | – |
| CCCCC(Cc1cccc(OCCc2ccccc2)c1OCCc1ccccc1)C(=O)O (stereo not drawn) | > 40 | Non-toxic | inactive | inactive | 3.7 | 79 | > 40 | 66.1 | 89.6 | – | – | – |
| CCCCC(Cc1ccc(OCCc2ccccc2)c(OCCC2CCCCC2)c1)C(=O)O (stereo not drawn) | > 40 | Non-toxic | inactive | inactive | 1.5 | 128 | > 40 | 82 | 96.6 | – | – | – |
| CCCC/C(=C\c1cc(OCCc2ccccc2)cc(OCCc2ccccc2)c1)C(=O)O | 37.9 | Non-toxic | inactive | inactive | 7.8 | 95 | 27.3 | 81.4 | 81.4 | – | – | – |
| CCCC/C(=C\c1cc(OCCc2ccccc2)ccc1OCCc1ccccc1)C(=O)O | 15.4 | Non-toxic | inactive | inactive | 1.8 | 47 | 6.7 | 68 | 94.4 | – | – | – |
| CCCCC(Cc1ccc(OCCC2CCCCC2)c(OCCC2CCCCC2)c1)C(=O)O (stereo not drawn) | > 40 | Non-toxic | inactive | inactive | 1.1 | 69 | > 40 | 73.8 | 79.1 | – | – | – |
| CCCCC(Cc1ccc(OCCc2ccccc2)c(OCCc2ccccc2)c1)C(=O)O (stereo not drawn) | > 40 | Non-toxic | inactive | inactive | 2.2 | 100 | > 40 | 95.8 | 86.4 | – | – | – |

From ChEMBL document CHEMBL1817621, “SAR studies of acidic dual γ-secretase/PPARγ modulators” (Bioorg Med Chem, 2011)
